Measured values from patent publication US20140296337A1, “CNS MODULATORS” (BTG International Limited, priority 2004, published 2014).

Key:
[1] = test system: electrical power of four rat brain areas (frontal cortex, hippocampus, striatum, reticular formation); test: Tele-Stereo-EEG: continuous recording of intracerebral field potentials in the freely moving rat; assay type: in vivo
Excerpt: Analysis of brain field potentials (“Tele-Stereo-EEG”) has been proven to be a very sensitive tool for the characterization of drug effects on the central nervous system (Dimpfel et al., 1986). After administration of a centrally active drug, quantitative changes in the brain field potentials can be considered as a characteristic fingerprint of that particular drug. “Fingerprints” of more than 100 compounds have been obtained including 8 established drug categories, e.g. analgesics, antidepressants, neuroleptics, stimulants, tranquilizers, sedatives and narcotics. Different dosages of the same drug cause quantitative changes in electrical power. […] Direct comparison with specific reference drugs, or by discriminant analysis with reference to an extensive fingerprint database, permits the detection of any possible similarities with established drugs. In general, “fingerprints” show prominent differences for drugs prescribed for different indications and are similar for drugs with similar indication (Dimpfel 2003). Furthermore, the pattern of EEG changes in the rat is a useful tool in predicting possible changes in the EEG power spectrum in humans.
Five intraperitoneal doses (30 mg/kg, 100 mg/kg, 300 mg/kg, 600 mg/kg and 1000 mg/kg body weight) of sodium (R)-3-hydroxybutyrate (BHB) were investigated using the “Tele-Stereo-EEG” animal model consisting of continuous recording of intracerebral field potentials in the freely moving rat. No effects could be measured using 1 ml/kg of a solution containing 20 mM of Na-bicarbonate (pH 8.4 or pH 12.5) for control purposes. […] Most marked changes were observed within the alpha2 range.
Adult Fisher rats (4-6 month of age and day—night converted, weight about 400 g) were implanted with 4 bipolar concentric steel electrodes using a stereotactic surgical procedure (Paxinos and Watson, 1982). All four electrodes were placed 3 mm lateral within the left hemisphere. Anterior coordinates were 12.2, 5.7, 9.7 and 3.7 mm for frontal cortex, hippocampus, striatum and reticular formation, respectively. A baseplate carrying the electrodes and a 5-pin-plug was fixed to the skull by dental cement attached to 3 steel screws fixed into the skull. Animals were given two weeks for recovery from the surgical procedure. Experiments were performed in compliance with the German Health Authority Guidelines and with local authority approval. EEG signals were recorded from frontal cortex, hippocampus, striatum and reticular formation and were amplified and processed as described previously (see Dimpfel et al., 1986). After automatic artefact rejection, signals were collected in sweeps of 4 s duration and submitted to Fast Fourier transformation. The resulting electrical power spectra were divided into 6 frequency ranges: delta (0.8-4.5 Hz); theta (4.75-6.75 Hz); alpha1 (7.00-9.50 Hz); alpha2 (9.75-12.50 Hz); beta (12.75-18.50 Hz); beta2 (18.75-35.00 Hz). […] In an off-line procedure spectra were averaged to give 15 minute or longer periods for further statistical analysis.
Five dosages of BHB (30, 100, 300, 600 and 1000 mg/kg body weight) (supplied by Solvias AG, CH 4002 Basel, Switzerland, batch No: SO-1058.047.1.120) and a vehicle control (0.9% w/v saline) were administered intraperitoneously to a group of 12 animals using a crossover design with at least 3 drug holidays in between the applications. Additional controls consisted of a 1 ml/kg of a solution containing 20 mM of Na-bicarbonate (adjusted to 8.4 and pH 12.5 obtained by titration with 1N NaOH) were tested to ascertain possible effects due to the alkaline pH of the BHB solution. After a pre-drug period of 45 minutes for baseline recording, drug effects were observed continuously for 300 minutes. Changes of electrical power (μV2W) are expressed as % of the 45 min. pre-drug values. Multivariate statistics were calculated according to Ahrens and Lauter (1974).

[2] = test system: EEG frequency bands (delta, theta activity); details: cited from earlier work
[3] = BHB 100 mg/kg i.p. single dose, rat
[4] = BHB 300 mg/kg i.p. single dose, rat

SMILES: C[C@@H](O)CC(=O)[O-].[Na+] [BHB, sodium (R)-3-hydroxybutyrate]
- discriminant analysis of EEG fingerprint (24 variables) ([1]; 6 frequency ranges, 4 brain areas, one time period): close proximity to paroxetine and tramadol
- effects on EEG frequencies relative to the saline control ([1]; BHB 30 mg/kg body weight i.p. single dose, rat): no statistically significant effects
- duration of EEG effects [1, 3]: 1 to 2 h
- statistical significance of EEG changes [1, 3]: not statistically significant
- EEG frequency changes (electrical power, % of pre-drug values) ([1]; BHB 100 mg/kg i.p. single dose, rat, all regions, mainly alpha2, less delta): decrease of electrical power
- EEG frequency changes (electrical power, % of pre-drug values) [1, 4]: decreases in alpha2 power throughout all brain regions
- duration of pattern of EEG changes [1, 4]: two
- statistical significance of EEG changes ([1]; BHB 300 mg/kg i.p. single dose, rat, by brain region): statistically significant for the frontal cortex, hippocampus and reticular formation, but not for the striatum
- duration of EEG effects ([1]; BHB 600 mg/kg i.p. single dose, rat, generally, except reticular formation): 2 h
- statistical significance of EEG changes ([1]; BHB 600 mg/kg i.p. single dose, rat, including first hour within striatum): statistically highly significant
- duration of decreases of power in the reticular formation ([1]; BHB 600 mg/kg i.p. single dose, rat): persisted throughout the third hour
- EEG frequency changes (electrical power, % of pre-drug values) ([1]; BHB 1000 mg/kg i.p. single dose, rat): more prominent decreases of power lasting into the third hour
- statistical significance of EEG changes ([1]; BHB 1000 mg/kg i.p. single dose, rat, even 5th hour within reticular formation): statistically highly significant
- duration of decreases of power in the reticular formation ([1]; BHB 1000 mg/kg i.p. single dose, rat, total experimental time): 5 h
- similarity of EEG electrical fingerprint to reference drugs ([1]; BHB at a lower dosage, vs galanthamine 3 mg/kg and paroxetine 2 mg/kg): similarity to the “electrical fingerprints” of the acetylcholine esterase inhibitor galanthamine and also the antidepressant paroxetine
- statistical significance of EEG changes ([1]; BHB dose levels of 300-1000 mg/kg i.p., rat): statistically highly significant
- similarity of EEG profile to reference drugs ([1]; higher dosages of BHB, vs tramadol 10 mg/kg): reminiscent of the effects as observed after the administration of tramadol

SMILES: Clc1cccc(Cl)c1N=C1NCCN1 [clonidine]
- change of theta activity ([2]; drug down regulating the norepinephrine system (presynaptic adrenergic alpha2 receptor)): increases

SMILES: CN1[C@@H]2C[C@@H](OC(=O)[C@H](CO)c3ccccc3)C[C@H]1[C@@H]1O[C@@H]12 [scopolamine]
- change of delta activity ([2]; drugs affecting the cholinergic system): increase of power
